{
  "source": "patent US20240108753A1",
  "about": "“NUCLEIC ACID DELIVERY” (NUNTIUS THERAPEUTICS LIMITED, priority 2021, published 2024)",
  "key": {"mice tissue [1]": {"tested_on": "mice tissue", "assay": "In vivo luciferase DNA expression assays", "conditions": "intramuscular; DOTMA/DOPE w/w=1:1 to DNA; NP 20:1; 48 h", "experimental": "Mice were injected with the dendrimers, lipid and DNA formulations, and tissues were isolated and snap-frozen for luciferase expression analysis 24 h and 48 h post intravenous and intramuscular injection respectively.\nThe tissues were homogenised with 1× reporter lysis buffer supplemented with Protease Inhibitors. Depending on the tissues, 1.5 to 3 times of the lysis buffer was used for the tissue homogenisation. Following the homogenisation, the lysates were centrifuged and the supernatants were used for assaying luciferase expression and protein content. The luciferase expression level was measured with a luminometer using a luciferase assay kit (Promega), following the manufacturer's instructions. The protein content was measured using a Biorad protein assay kit at 595 nm absorbance, following the manufacturer's instructions.\nMice were injected with the dendrimers, lipid and DNA formulation prepared for detection of luciferase expression post injection. Tissues were isolated and snap-frozen for luciferase expression analysis 24 h and 48 h post intravenous and intramuscular injection respectively."}, "mice tissue [2]": {"tested_on": "mice tissue", "assay": "In vivo luciferase mRNA expression assays", "conditions": "for luciferase expression in tissues, mRNA delivery: intravenous, DOTMA/DOPE w/w=10:1 to mRNA, 6 hours", "experimental": "Peptide dendrimers were diluted to a respective concentration and mixed with mRNA for a desired NP ratio such as NP=0.15:1 or 8:1. The solution was incubated in room temperature for 10 mins. Lipid such as DOTMA/DOPE was diluted to a respective concentration and mixed with the dendrimer-mRNA complexes for a desired NP ratio such as NP-4.7:1. The solution was incubated in room temperature for 20 mins. When required, the solution would be further diluted before injection.\nAll animal procedures conducted in our studies complied with UK laws and were inclusive of ethics approval. Female CD-1 mice (n=39) aged 6-8 weeks left to habituate for 1-week upon their arrival. All mice were weighed, and the formulations were delivered intravenously (100 μl) via the tail vein using 30G insulin syringes (BD biosciences).\nAll mice were imaged 6 hours post injection. BLI was performed using an IVIS Lumina II (Perkin Elmer) Imaging system. Mice were administered D-luciferin (30 mg/mL, XenoLight, Perkin Elmer) at a dose of 150 mg/kg. Mice were anaesthetised 6 mins after receiving D-luciferin in a chamber with 5% isoflurane and then placed on a heated imaging platform while being maintained on 2.5% isoflurane. Mice were imaged 10 min post administration of D-luciferin with an exposure time set to ensure the signal acquired was within an effective detection range (open filter, binning 8, f-stop 1). Bioluminescence signal was quantified by measuring photon flux (photons/s) in the defined region of interest (ROI) using the Living Image software (Perkin Elmer). Following in vivo whole-body imaging, the mice were euthanised, cardiac blood taken, and the tissues extracted for ex vivo imaging. Here each tissue was placed into individual wells of a 24-well imaging plate (black sided, Eppendorf) containing 0.3 mg/mL D-luciferin in PBS). The imaging plate was placed in the centre of imaging platform (Lumina II system) and signal was measured using the acquisition settings detailed above. Finally, the tissues were placed in storage vials and flash frozen in liquid nitrogen.\nMice were injected with a composition comprising DOTMA/DOPE, mRNA encoding luciferase and either G1,2,3-RL, (FIG. 10, top panel; the “G1,2,3-RL, lipid and mRNA formulation”) or G1,2-RL,3-LR (FIG. 10, bottom panel: the “G1,2,3-RL, lipid and mRNA formulation”). Each formulation was prepared and injected at an NP ratio of 8:1 and 0.15:1. Mice were prepared for detection of luciferase expression post injection."}, "C2C12 cells": {"tested_on": "C2C12 cells", "assay": "In vitro DNA (luciferase reporter) delivery", "format": "cell-based", "conditions": "N:P=8:1, DOTMA/DOPE w/w=1:1 to DNA", "description": "FIG. 25. In vitro DNA delivery to HeLa and C2C12 cells. HeLa cells were transfected with either DNA alone, G1,2,3-RL (N:P=5:1) and DOTMA/DOPE (at a w/w=1:1 to DNA) with DNA and G1,2,3-RL (N:P=5:1) and DOPG/DOPE (at a w/w=1:1 to DNA) with DNA (top panel). C2C12 cells (a muscle-derived cell line) were transfected with either DNA alone, polyethylenimine with DNA, G1,2-RL, 3-LR (N:P=8:1) and DOTMA/DOPE (at a w/w=1:1 to DNA) with DNA and NTX2 (N:P=8:1) and DOTMA/DOPE (at a w/w=1:1 to DNA) with DNA (bottom panel). The DNA used in both experiments encodes a luciferase reporter gene. NTX2 is a G1,2-RL, 3-LR dendrimer conjugated to a muscle targeting peptide ASSLINA ((LR)8(KRL)4(KRL)2KGSCGAASSLNIA(Acp)-NH2).\nNTX2 is a G1,2-RL, 3-LR dendrimer conjugated to a muscle targeting peptide ASSLINA ((LR)8(KRL)4(KRL)2KGSCGAASSLNIA(Acp)-NH2)."}, "[3]": {"assay": "Hydrodynamic size, polydispersity index and zeta potential of dendrimer, lipid and mRNA complexes", "format": "physicochemical", "conditions": "DOTMA/DOPE w/w 10:1 to mRNA; for Hydrodynamic size: dendrimer, lipid and mRNA complexes", "experimental": "The hydrodynamic size, polydispersity index and Zeta potential was determined for a set of the dendrimers disclosed in Tables 1 and 2."}, "immune cells": {"tested_on": "immune cells", "assay": "Immune cell targeting: uptake of labelled mRNA after intravenous injection (flow cytometry)", "format": "in vivo, mice", "experimental": "Fifteen 5-7-week-old female CD-1 mice (Charles River UK) were dosed with 1 mg/kg of either mRNA labelled with Alexa Fluor488 only or mRNA labelled with Alexa Fluor488 with NTX1 and DOTMA/DOPE or mRNA labelled with Alexa Fluor488 with G1,2-RL, 3-LR and DOTMA/DOPE or mRNA labelled with Alexa Fluor488 with G1,2-RL, 3-LR and DOTMA/DOPE, respectively, via intravenous injection using a dose volume of 5 ml/kg. Group 1 received vehicle and Group 5 received mRNA alone as controls. Mice in al groups were culled 2 hours post IV administration. At the time of euthanasia, whole blood, spleen, inguinal lymph nodes and femurs were collected from all mice. White Blood Cells (WBC) were obtained from EDTA treated whole blood, spleen, inguinal lymph nodes and bone marrow for flow cytometry analysis. In short, bone marrow (BM) was flushed from femurs, and spleens and lymph nodes were processed to single cell suspensions by passing them through a 70 μm filter. Red blood cells in blood, BM and spleen were lysed before isolated WBCs from all tissues were stained with different antibody panels to identify specific sub-populations of immune cells. The staining was performed in a 96-well plate format before samples were analysed using an ACEA Novocyte 3005 flow cytometer."}},
  "note": "“Also recorded” adds a separate entry of the source.",
  "data": [
    {"substance": "(LR)8(KRL)4(KRL)2KGSC-NH2 [G1,2-RL, 3-LR]", "values": [
      {"measurement": "luciferase expression in skeletal muscle, DNA delivery", "setting": "mice tissue [1]", "result": "capable of delivering DNA to skeletal muscle"},
      {"measurement": "luciferase expression with PEG2000 lipid", "setting": "mice tissue [2]; DOTMA/DOPE/PEG2000 compared to DOTMA/DOPE", "result": "attenuated luciferase expression"},
      {"measurement": "luciferase expression in tissues, mRNA delivery", "setting": "mice tissue [2]; NP 0.15:1", "result": "significant expression in the Gastrocnemius and Quadricep muscle tissues, liver, heart, kidney and adipose tissue"},
      {"measurement": "luciferase expression in tissues, mRNA delivery", "setting": "mice tissue [2]; NP 0.15:1, listed as G1,2-RL,3-LR", "result": "targets a wide range of immune cell tissues including lung, spleen, and lymph nodes; also recorded: improves efficiency of mRNA delivery to lung, spleen, and lymph nodes"},
      {"measurement": "luciferase expression in tissues, mRNA delivery", "setting": "mice tissue [2]; NP 8:1", "result": "significant expression in the Gastrocnemius and Quadricep muscle tissues, liver, heart, kidney and adipose tissue; also recorded: significantly enhanced"},
      {"measurement": "luciferase expression after DNA transfection", "setting": "C2C12 cells", "result": "capable of successfully transfecting C2C12 cells"},
      {"measurement": "Polydispersity Index (PDI)", "setting": "[3]; N:P 0.16:1", "result": 0.122},
      {"measurement": "Zeta Potential", "setting": "[3]; N:P 0.16:1", "result": 16, "unit": "mV"},
      {"measurement": "Polydispersity Index (PDI)", "setting": "[3]; N:P 8:1", "result": 0.261},
      {"measurement": "Zeta Potential", "setting": "[3]; N:P 8:1", "result": 56, "unit": "mV"},
      {"measurement": "Hydrodynamic size", "setting": "[3]; N:P 0.16:1", "result": 127, "unit": "nm"},
      {"measurement": "Hydrodynamic size", "setting": "[3]; N:P 8:1", "result": 84, "unit": "nm"},
      {"measurement": "delivery of mRNA to immune cells", "setting": "immune cells; blood, 2 hours post-injection", "result": "Delivery of mRNA to a wide range of immune cells present in the blood is possible"},
      {"measurement": "uptake of mRNA in immune cells", "setting": "immune cells; bone marrow, 2 hrs post-injection", "result": "mediated uptake of mRNA in immune cells present in the bone marrow"}
    ]}
  ]
}
